Reference: patent US10231967B2, “Compounds and their use as BACE inhibitors” (ASTRAZENECA AB, priority 2010, dated 2019)

The molecules below were run on sAPPβ release in SH-SY5Y cells (assay: sAPPβ release assay). Details: Homo sapiens, SH-SY5Y, 17 h, compounds incubated 17 h, MSD detection.
Format: cell-based
Procedure, shortened: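 SH-SY5Y cells were exposed to compounds at 1% DMSO final for 17 h at 37 °C. Secreted sAPPβ in 20 μL of medium was quantified by MSD electrochemiluminescence immunoassay with 1 nM detection antibody. Cell plates were then used in an ATP assay for cytotoxicity.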

| IC50 [nM] | Structure (SMILES) |
| --- | --- |
| 0.56 | CO[C@H]1CC[C@]2(CC1)Cc1ccc(-c3cc(Br)cc(C#N)c3)cc1C21N=C(C)C(N)=N1 (stereo partly drawn) [Example 93, 3-[(1r,4r)-4″-Amino-4-methoxy-5″-methyl-3′H-dispiro[cyclohexane-1,2′-indene-1′,2″-imidazol]-6′-yl]-5-bromobenzonitrile] |
| 21 | CC#Cc1cncc(-c2ccc3c(c2)C2(CCC3)N=C(C)C(N)=N2)c1 (stereo not drawn) [Example 53, 5-Methyl-7′-(5-(prop-1-ynyl)pyridin-3-yl)-3′,4′-dihydro-2′H-spiro[imidazole-2,1′-naphthalen]-4-amine] |
| 0.93 | COc1cc(-c2ccc3c(c2)[C@@]2(N=C(C)C(N)=N2)[C@]2(CC[C@H](OC)CC2)C3)cc(C#N)c1F [Example 87, 5-[(1r,1′R,4R)-4″-Amino-4-methoxy-5″-methyl-3′H-dispiro[cyclohexane-1,2′-indene-1′,2″-imidazol]-6′-yl]-2-fluoro-3-methoxybenzonitrile] |
| 36 | CO[C@H]1CC[C@]2(CC1)Cc1ccc(-c3cncc(COCC(F)(F)F)c3)cc1C21N=C(C)C(N)=N1 (stereo partly drawn) [Example 82, (1r,4r)-4-Methoxy-5″-methyl-6′-{5-[(2,2,2-trifluoroethoxy)methyl]pyridin-3-yl}-3′H-dispiro[cyclohexane-1,2′-indene-1′,2″-imidazol]-4″-amine] |
| 47 | [2H]C([2H])([2H])O[C@H]1CC[C@]2(CC1)Cc1ccc(Br)cc1C21N=C(C)C(N)=N1 (stereo partly drawn) [Example 117, (1r,4r)-6′-Bromo-5″-methyl-4-[(^2H3)methyloxy]-3′H-dispiro[cyclohexane-1,2′-indene-1′,2″-imidazol]-4″-amine] |
| 8.6 | CO[C@H]1CC[C@]2(CC1)Cc1ccc(NC(=O)c3ccc(C(F)(F)F)cn3)cc1C21N=C(C)C(N)=N1 (stereo partly drawn) [Example 20k, N-[(1r,4r)-4″-Amino-4-methoxy-5″-methyl-3′H-dispiro[cyclohexane-1,2′-indene-1′,2″-imidazol]-6′-yl]-5-(trifluoromethyl)pyridine-2-carboxamide] |
| 0.8 | CO[C@H]1CC[C@]2(CC1)Cc1ccc(-c3cc(C#N)cc(C(F)(F)F)c3)cc1[C@@]21N=C(C)C(N)=N1 [Example 85] |

Same assay, conditions: Homo sapiens, compounds incubated 17 h, MSD detection

| IC50 [nM] | Structure (SMILES) |
| --- | --- |
| 1.8 | CC1=NC2(N=C1N)c1cc(-c3cc(Cl)cc(C#N)c3)ccc1C[C@]21CC[C@@H](OC(F)F)CC1 (stereo partly drawn) [Example 108, 3-[(1r,4r)-4″-Amino-4-(difluoromethoxy)-5″-methyl-3′H-dispiro[cyclohexane-1,2′-indene-1′,2″-imidazol]-6′-yl]-5-chlorobenzonitrile] |
| 140 | CC1=NC2(N=C1N)c1cc(-c3ccc(F)c(Cl)c3)ccc1CC21CCOCC1 (stereo not drawn) [Example 26c, 6′-(3-Chloro-4-fluorophenyl)-5-methyl-2″,3″,5″,6″-tetrahydro-3′H-dispiro[imidazole-2,1′-indene-2′,4″-pyran]-4-amine] |
| 463 | CC1=NC2(CCOc3ccc(NC(=O)c4ccc(C(F)(F)F)cn4)cc32)N=C1N (stereo not drawn) [Example 13c, N-(4′-Amino-5′-methylspiro[chroman-4,2′-imidazole]-6-yl)-5-(trifluoromethyl)picolinamide] |
| 0.62 | COc1cc(C#N)cc(-c2ccc3c(c2)C2(N=C(C)C(N)=N2)[C@]2(CC[C@H](OC)CC2)C3)c1 (stereo partly drawn) [Example 91, 3-[(1r,4r)-4″-Amino-4-methoxy-5″-methyl-3′H-dispiro[cyclohexane-1,2′-indene-1′,2″-imidazol]-6′-yl]-5-methoxybenzonitrile] |
| 29 | CC#Cc1cncc(-c2ccc3c(c2)C2(N=C(C)C(N)=N2)[C@]2(CC[C@H](OC)CC2)C3)c1C (stereo partly drawn) [Example 63, (1r,4r)-4-Methoxy-5″-methyl-6′-[4-methyl-5-(prop-1-yn-1-yl)pyridin-3-yl]-3′H-dispiro[cyclohexane-1,2′-indene-1′,2″-imidazol]-4″-amine] |
| 3.1 | CO[C@H]1CC[C@]2(CC1)Cc1ccc(-c3cncc(C(F)F)c3)cc1C21N=C(C)C(N)=N1 (stereo partly drawn) [Example 120, (1r,4r)-6′-[5-(Difluoromethyl)pyridin-3-yl]-4-methoxy-5″-methyl-3′H-dispiro[cyclohexane-1,2′-indene-1′,2″-imidazol]-4″-amine] |
| 1.2 | CO[C@H]1CC[C@]2(CC1)Cc1ccc(OCCCF)cc1C21N=C(C)C(N)=N1 (stereo partly drawn) [Example 20v] |
| 1.1 | CO[C@H]1CC[C@]2(CC1)Cc1ccc(-c3cc(C#N)cc(C(F)F)c3)cc1[C@@]21N=C(C)C(N)=N1 [Example 86, 3-[(1r,1′R,4R)-4″-Amino-4-methoxy-5-methyl-3′H-dispiro[cyclohexane-1,2′-indene-1′,2″-imidazol]-6′-yl]-5-(difluoromethyl)benzonitrile] |
| 0.78 | CC#Cc1ccnc(-c2ccc3c(c2)C2(N=C(C)C(N)=N2)[C@]2(CC[C@H](OC)CC2)C3)c1 (stereo partly drawn) [Example 20b, (1r,4r)-4-Methoxy-5″-methyl-6′-[4-(prop-1-yn-1-yl)pyridin-2-yl]-3′H-dispiro[cyclohexane-1,2′-indene-1′,2″-imidazol]-4″-amine] |
| 1.7 | CO[C@H]1CC[C@]2(CC1)Cc1ccc(-c3cc(C#N)cc(C#N)c3)cc1C21N=C(C)C(N)=N1 (stereo partly drawn) [Example 20c, 5-[(1r,4r)-4″-Amino-4-methoxy-5″-methyl-3′H-dispiro[cyclohexane-1,2′-indene-1′,2″-imidazol]-6′-yl]benzene-1,3-dicarbonitrile] |
| 5.5 | CCO[C@H]1CC[C@]2(CC1)Cc1ccc(-c3cncc(Cl)c3)cc1C21N=C(C)C(N)=N1 (stereo partly drawn) [Example 133, (1r,4r)-6′-(5-chloropyridin-3-yl)-4-ethoxy-5″-methyl-3′H-dispiro[cyclohexane-1,2′-indene-1′,2″-imidazol]-4″-amine] |
| 6.3 | CO[C@H]1CC[C@]2(CC1)Cc1ccc(-c3cccc(F)c3F)cc1[C@@]21N=C(C)C(N)=N1 [Example 101] |
| 1 | CC#Cc1cncc(-c2ccc3c(c2)[C@@]2(N=C(C)C(N)=N2)[C@]2(CC[C@H](O)CC2)C3)c1 [Example 73, (1r,1′R,4R)-4″-Amino-5″-methyl-6′-[5-(prop-1-yn-1-yl)pyridin-3-yl]-3′H-dispiro[cyclohexane-1,2′-indene-1′,2″-imidazol]-4-ol] |
| 31 | CC#Cc1cncc(-c2ccc3c(c2)C2(N=C(C)C(N)=N2)[C@]2(CC[C@](C)(OC)CC2)C3)c1 (stereo partly drawn) [Example 111, (1r,4r)-4-Methoxy-4,5″-dimethyl-6′-[5-(prop-1-yn-1-yl)pyridin-3-yl]-3′H-dispiro[cyclohexane-1,2′-indene-1′,2″-imidazol]-4″-amine] |
